Source: patent US20250163057A1, “DCN-1 MODULATING COMPOUNDS AND METHODS OF USE THEREOF” (Cellarity, Inc., priority 2023, published 2025)
Like-named read-outs stand apart in the source and are kept apart here.

Tests used:
[1] = tested on: Cullin-3 (CUL3) neddylation; test: AlphaLISA assay for Cullin-3 (CUL3) neddylation in TF 1 cells; format: cell-based; details: Homo sapiens, 3 hours treatment
Outline: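 Neddylated CUL3 was quantified by AlphaLISA in lysates of TF 1 cells exposed for 3 h to test compound in IMDM without supplements. Percent inhibition set between vehicle and 1 μM DI-1548 positive control; IC50 derived by Hill-equation fitting of dose-response curves.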

[2] = molecular target: DCN1 (DCUND1) protein PONY domain (Homo sapiens (Human), UniProt Q96GG9); test: TR-FRET assay, DCN1 binding with FAM-labeled probe
Outline: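 Biotinylated DCN1 PONY domain, labeled with streptavidin-Tb, was competed against a FAM-labeled non-covalent DCN1 inhibitor probe in buffer with TritonX and 200 mM NaCl. Conditions were 5 nM DCN1 with 20 nM FAM-probe, or 0.31 nM DCN1 with 100 nM FAM-plus 800 nM unlabeled probe. The TR-FRET ratio was read at 1, 5 and 24 h (0.1% DMSO).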

[3] = 24 hr after treatment with compound, read-out: TR FRET IC50 24 hr
[4] = TR FRET IC50 1 hr (nM), 1 hr after treatment with compound
[5] = read-out: TR FRET IC50 1 hr, 1 hr after treatment with compound

Chain of DCN1 (DCUND1) protein PONY domain (Q96GG9 60-248): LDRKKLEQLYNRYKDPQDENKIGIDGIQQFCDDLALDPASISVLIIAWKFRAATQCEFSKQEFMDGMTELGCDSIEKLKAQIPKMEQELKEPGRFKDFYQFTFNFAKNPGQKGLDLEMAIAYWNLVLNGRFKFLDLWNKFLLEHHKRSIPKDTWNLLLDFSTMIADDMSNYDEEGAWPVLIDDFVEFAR

Structure (SMILES) | IC50 ([1]; TF-1, 3 h) [µM] | IC50 [2, 3] [nM] | IC50 [2, 4] [nM] | IC50 [2, 5] [nM] | IC50 [1] [µM]
CCN1C(=O)[C@H](NC(=O)c2cccc(C(F)(F)F)c2)[C@H](c2ccc(F)cc2)c2c(C(=O)N(CC#N)C3CC3)nn(C3CCOCC3)c21 [Compound I-414] | > 1 | 1000 to 3000 | 1000 to 3000 | – | –
CCN1C(=O)[C@@H](NC(=O)c2cccc(C(F)(F)F)c2)[C@@H](c2ccc(F)cc2)c2c(C(=O)N3[C@H](C)CC[C@H]3C#N)nn(C3CCOCC3)c21 [Compound I-416] | 0.1 to 1 | 200 to 1000 | 1000 to 3000 | – | –
CCN1C(=O)[C@@H](NC(=O)c2cccc(C(F)(F)F)c2)[C@@H](c2ccc(F)cc2)c2c(CN(C)CC#N)nn(-c3ccccc3)c21 [Compound I-417] | 0.1 to 1 | 200 to 1000 | 1000 to 3000 | – | –
CCCn1nc(C(=O)N(CC#N)C2CC2)c2c1N(CC)C(=O)[C@@H](NC(=O)c1cccc(C(F)(F)F)c1)[C@H]2C1CC1 [Compound I-427] | 0.1 to 1 | 200 to 1000 | 1000 to 3000 | – | –
CCCn1nc(C(=O)N2CCC[C@H]2C#N)c2c1N(CC)C(=O)[C@@H](NC(=O)c1cccc(C(F)(F)F)c1)[C@H]2c1ccc(F)cc1 [Compound I-428] | ≤ 0.1 | ≤ 200 | 200 to 1000 | – | –
CCN1C(=O)[C@@H](NC(=O)c2cccc(C(F)(F)F)c2)[C@@H](C2CC2)c2c(C(=O)N(C)[C@H](C#N)CCN(C)C3COC3)nn(C3CCOCC3)c21 [Compound I-429] | ≤ 0.1 | ≤ 200 | – | ≤ 200 | –
CCN1C(=O)[C@@H](NC(=O)c2ccn(C(F)F)n2)[C@@H](C2CC2)c2c(C(=O)N3[C@H](C#N)C[C@H]4C[C@H]43)nn(C3CCOCC3)c21 [Compound I-432] | 0.1 to 1 | ≤ 200 | 200 to 1000 | – | –
CCN1C(=O)[C@@H](NC(=O)c2cccc(C(F)(F)F)c2)[C@@H](C2CC2)c2c(C(=O)N3CCC=C3C#N)nn(C3CCOCC3)c21 [Compound I-437] | > 1 | ≤ 200 | 1000 to 3000 | – | –
CCN1C(=O)[C@@H](NC(=O)c2cccc(C(F)(F)F)c2)[C@@H](C2CC2)c2c(C(=O)N3CCS(=O)(=O)C[C@@H]3C#N)nn(-c3ccccc3)c21 [Compound I-438, N-((4S,5S)-3-((S)-3-cyano-1,1-dioxidothiomorpholine-4-carbonyl)-4-cyclopropyl-7-ethyl-6-oxo-1-phenyl-4,5,6,7-tetrahydro-1H-pyrazolo[3,4-b]pyridin-5-yl)-3-(trifluoromethyl)benzamide] | ≤ 0.1 | ≤ 200 | – | ≤ 200 | –
CCN1C(=O)[C@@H](NC(=O)c2cccc(C(F)(F)F)c2)[C@@H](c2ccc(F)cn2)c2c([C@@H](C)NC#N)nn(-c3ccccc3)c21 [Compound I-439] | ≤ 0.1 | ≤ 200 | – | ≤ 200 | –
CCN1C(=O)[C@@H](NC(=O)c2cccc(C(F)(F)F)c2)[C@@H](C2CC2)c2c(C(=O)N3[C@H](C#N)C[C@@H]4C[C@@H]43)nn(C3CCOCC3)c21 [Compound I-441] | > 1 | 200 to 1000 | 1000 to 3000 | – | –
CCN1C(=O)[C@@H](NC(=O)c2cccc(C(F)(F)F)c2)[C@@H](C2CC2)c2c(C(=O)N3[C@@H]4C[C@@H]4C[C@@H]3C#N)nn(C3CCOCC3)c21 [Compound I-442] | > 1 | 200 to 1000 | 1000 to 3000 | – | –
CCN1C(=O)[C@@H](NC(=O)c2cccc3c2OCC3)[C@@H](C2CC2)c2c(C(=O)N3[C@H](C#N)C[C@H]4C[C@H]43)nn(C3CCOCC3)c21 [Compound I-445] | – | ≤ 200 | – | ≤ 200 | ≤ 0.1
CCN1C(=O)[C@@H](NC(=O)c2cccc3[nH]cnc23)[C@@H](C2CC2)c2c(C(=O)N3[C@H](C#N)C[C@H]4C[C@H]43)nn(C3CCOCC3)c21 [Compound I-446] | > 1 | 1000 to 3000 | 1000 to 3000 | – | –
CCN1C(=O)[C@@H](NC(=O)c2cccc(C(F)(F)F)c2)[C@@H](c2ccc(F)cc2)c2c(C(=O)N3[C@H](C#N)C[C@@H]4C[C@@H]43)nn(-c3ccccc3)c21 [Compound I-450] | 0.1 to 1 | 1000 to 3000 | 1000 to 3000 | – | –
